For five compounds, IC50 and Ki results are on record in ChEMBL document CHEMBL1909046, “DrugMatrix in vitro pharmacology data”.

Sequence of Adenosine receptor A2a (P29274 whole entry): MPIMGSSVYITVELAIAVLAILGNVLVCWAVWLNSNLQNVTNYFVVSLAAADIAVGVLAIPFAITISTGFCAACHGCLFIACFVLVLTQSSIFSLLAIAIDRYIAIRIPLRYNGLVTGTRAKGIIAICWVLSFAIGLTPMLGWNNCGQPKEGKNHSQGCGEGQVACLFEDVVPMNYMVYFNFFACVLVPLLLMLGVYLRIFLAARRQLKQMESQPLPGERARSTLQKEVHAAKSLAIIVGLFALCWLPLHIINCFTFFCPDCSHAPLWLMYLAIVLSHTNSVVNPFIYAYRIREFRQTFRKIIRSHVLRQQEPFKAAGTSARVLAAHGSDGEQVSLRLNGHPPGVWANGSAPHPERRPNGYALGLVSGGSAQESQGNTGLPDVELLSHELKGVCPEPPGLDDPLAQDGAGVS

The first data set concerns the target Adenosine receptor A2a (Homo sapiens, UniProt P29274). Description: DRUGMATRIX: Adenosine A2A radioligand binding (ligand: […]). Type of data set: cell membranes, Membrane. The settings on record: hek293; Not Active = under 50% inhibition at 10 µM.
As to `CC(=O)[C@@]1(O)CC[C@H]2[C@@H]3C[C@H](C)C4=CC(=O)CC[C@]4(C)[C@H]3CC[C@@]21C`, the IC50 result is listed as “Not Active”.

In the case of `Nc1nc2nc[nH]c2c(=S)[nH]1` [THIOGUANINE], the IC50 result is listed as “Not Active”.

`COc1nc(C)nc(Cl)c1NC1=NCCN1` [MOXONIDINE]: the IC50 entry is “Not Active”.

Consider `C[C@@H]1CN(c2c(F)c(N)c3c(=O)c(C(=O)O)cn(C4CC4)c3c2F)C[C@H](C)N1` [SPARFLOXACIN], for which the IC50 entry was “Not Active”.

As to `N[C@@H](Cc1ccc(O)c(O)c1)C(=O)O` [LEVODOPA], the IC50 result is listed as “Not Active”.

For a further data set, the target named is T1, C-C chemokine receptor type 4 (Homo sapiens, UniProt P51679). Note: in other assays of this panel Not Active means under 50% inhibition at 10 µM.
T1 sequence (P51679 whole entry): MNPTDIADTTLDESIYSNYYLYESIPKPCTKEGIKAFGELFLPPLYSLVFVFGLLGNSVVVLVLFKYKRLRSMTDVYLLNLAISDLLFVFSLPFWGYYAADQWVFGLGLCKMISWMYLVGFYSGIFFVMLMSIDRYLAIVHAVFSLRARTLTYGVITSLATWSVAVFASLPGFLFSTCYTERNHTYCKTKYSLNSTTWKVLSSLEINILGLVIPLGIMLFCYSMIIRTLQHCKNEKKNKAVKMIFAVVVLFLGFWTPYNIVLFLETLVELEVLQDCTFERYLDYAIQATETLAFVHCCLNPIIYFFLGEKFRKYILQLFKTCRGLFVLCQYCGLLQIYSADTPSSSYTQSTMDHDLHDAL
Type of data set: cell membranes, Chem-1, Membrane. The settings on record: chem-1.
On to `CC(=O)[C@@]1(O)CC[C@H]2[C@@H]3C[C@H](C)C4=CC(=O)CC[C@]4(C)[C@H]3CC[C@@]21C`, for which the IC50 entry is recorded as “Not Active”.

`Nc1nc2nc[nH]c2c(=S)[nH]1` [THIOGUANINE]: the IC50 entry is “Not Active”.

Consider `COc1nc(C)nc(Cl)c1NC1=NCCN1` [MOXONIDINE], for which the IC50 entry is given as “Not Active”.

Regarding `C[C@@H]1CN(c2c(F)c(N)c3c(=O)c(C(=O)O)cn(C4CC4)c3c2F)C[C@H](C)N1` [SPARFLOXACIN], the IC50 entry is “Not Active”.

With `N[C@@H](Cc1ccc(O)c(O)c1)C(=O)O` [LEVODOPA], the IC50 entry is “Not Active”.

A further data set has as its target T2, Cytochrome P450 2A6 (Homo sapiens, UniProt P11509). Note: in other assays of this panel Not Active means under 50% inhibition at 10 µM.
T2 sequence (P11509 whole entry): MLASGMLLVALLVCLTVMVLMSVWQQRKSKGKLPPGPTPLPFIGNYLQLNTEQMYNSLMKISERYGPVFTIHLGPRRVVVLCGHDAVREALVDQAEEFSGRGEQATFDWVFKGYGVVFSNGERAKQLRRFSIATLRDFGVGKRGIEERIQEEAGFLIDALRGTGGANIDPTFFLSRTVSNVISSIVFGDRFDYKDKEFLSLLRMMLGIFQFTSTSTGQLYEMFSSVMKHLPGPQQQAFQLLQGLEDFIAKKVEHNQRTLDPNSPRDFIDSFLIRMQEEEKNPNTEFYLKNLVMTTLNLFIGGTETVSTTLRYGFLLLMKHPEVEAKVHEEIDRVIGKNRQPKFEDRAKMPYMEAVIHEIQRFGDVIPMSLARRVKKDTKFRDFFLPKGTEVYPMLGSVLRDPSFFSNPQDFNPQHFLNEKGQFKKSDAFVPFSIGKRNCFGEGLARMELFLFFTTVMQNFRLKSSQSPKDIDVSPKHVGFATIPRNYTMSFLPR
The conditions noted are these: bti-tn-5b1-4.
As to `CC(=O)[C@@]1(O)CC[C@H]2[C@@H]3C[C@H](C)C4=CC(=O)CC[C@]4(C)[C@H]3CC[C@@]21C`, the IC50 entry is on record as “Not Active” and the Ki entry is reported as “Not Active”.

In the case of `Nc1nc2nc[nH]c2c(=S)[nH]1` [THIOGUANINE], the IC50 entry is “Not Active” and the Ki entry was “Not Active”.

On to `COc1nc(C)nc(Cl)c1NC1=NCCN1` [MOXONIDINE], for which the IC50 result is recorded as “Not Active” and the Ki result is given as “Not Active”.

In the case of `C[C@@H]1CN(c2c(F)c(N)c3c(=O)c(C(=O)O)cn(C4CC4)c3c2F)C[C@H](C)N1` [SPARFLOXACIN], the IC50 entry is given as “Not Active” and the Ki result is recorded as “Not Active”.

In the case of `N[C@@H](Cc1ccc(O)c(O)c1)C(=O)O` [LEVODOPA], the IC50 entry is “Not Active” and the Ki entry is listed as “Not Active”.

For a further data set, the target named is Mitogen-activated protein kinase 14 (Homo sapiens, UniProt Q16539). Details: species or system Escherichia coli.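 Note: inhibition of p38alpha enzyme activity in a biochemical kinase assay, with myelin basic protein serving as substrate; in other assays of this panel Not Active means under 50% inhibition at 10 µM.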
Sequence of Mitogen-activated protein kinase 14 (Q16539 whole entry): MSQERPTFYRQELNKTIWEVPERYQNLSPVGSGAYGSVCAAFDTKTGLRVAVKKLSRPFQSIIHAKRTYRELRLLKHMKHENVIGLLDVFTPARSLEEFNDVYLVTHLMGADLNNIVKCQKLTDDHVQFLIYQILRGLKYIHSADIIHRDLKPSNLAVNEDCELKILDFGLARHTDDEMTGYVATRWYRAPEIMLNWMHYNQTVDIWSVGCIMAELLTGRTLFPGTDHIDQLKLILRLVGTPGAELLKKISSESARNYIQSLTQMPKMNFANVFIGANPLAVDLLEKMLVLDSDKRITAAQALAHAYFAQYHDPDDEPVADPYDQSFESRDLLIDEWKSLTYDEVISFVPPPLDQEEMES
Conditions: not given
For the compound `CC(=O)[C@@]1(O)CC[C@H]2[C@@H]3C[C@H](C)C4=CC(=O)CC[C@]4(C)[C@H]3CC[C@@]21C`, the IC50 result is recorded as “Not Active”.

`Nc1nc2nc[nH]c2c(=S)[nH]1` [THIOGUANINE]: the IC50 result is on record as “Not Active”.

`COc1nc(C)nc(Cl)c1NC1=NCCN1` [MOXONIDINE]: the IC50 result was “Not Active”.

With `C[C@@H]1CN(c2c(F)c(N)c3c(=O)c(C(=O)O)cn(C4CC4)c3c2F)C[C@H](C)N1` [SPARFLOXACIN], the IC50 result is on record as “Not Active”.

With `N[C@@H](Cc1ccc(O)c(O)c1)C(=O)O` [LEVODOPA], the IC50 result was “Not Active”.

In a further data set the target is Acetylcholinesterase (Homo sapiens, UniProt P22303). In words: DRUGMATRIX: Acetylcholinesterase enzyme inhibition (substrate: acetylthiocholine). It counts as cell-based, HEK293. The settings on record: hek293; Not Active = under 50% inhibition at 10 µM.
Sequence of Acetylcholinesterase (P22303 whole entry): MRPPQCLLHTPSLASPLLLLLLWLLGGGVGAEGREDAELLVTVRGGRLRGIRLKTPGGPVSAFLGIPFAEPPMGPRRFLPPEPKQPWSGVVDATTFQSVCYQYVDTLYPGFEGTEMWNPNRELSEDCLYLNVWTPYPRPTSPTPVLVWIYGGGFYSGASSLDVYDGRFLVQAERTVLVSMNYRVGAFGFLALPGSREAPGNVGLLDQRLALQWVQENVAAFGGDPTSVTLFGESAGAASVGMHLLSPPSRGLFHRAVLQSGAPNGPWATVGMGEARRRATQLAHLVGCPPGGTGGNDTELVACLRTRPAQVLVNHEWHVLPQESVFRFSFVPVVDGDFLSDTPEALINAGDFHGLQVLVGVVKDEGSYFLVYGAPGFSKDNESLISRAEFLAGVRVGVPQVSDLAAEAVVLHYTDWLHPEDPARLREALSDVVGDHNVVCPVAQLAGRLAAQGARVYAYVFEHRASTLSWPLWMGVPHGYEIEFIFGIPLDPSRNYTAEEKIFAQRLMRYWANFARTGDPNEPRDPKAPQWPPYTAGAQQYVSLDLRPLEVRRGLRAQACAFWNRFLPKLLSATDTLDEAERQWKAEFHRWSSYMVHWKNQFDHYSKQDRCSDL
As for `CC(=O)[C@@]1(O)CC[C@H]2[C@@H]3C[C@H](C)C4=CC(=O)CC[C@]4(C)[C@H]3CC[C@@]21C`, the IC50 result was “Not Active”.

In the case of `Nc1nc2nc[nH]c2c(=S)[nH]1` [THIOGUANINE], the IC50 result is given as “Not Active”.

Regarding `COc1nc(C)nc(Cl)c1NC1=NCCN1` [MOXONIDINE], the IC50 entry is given as “Not Active”.

On to `C[C@@H]1CN(c2c(F)c(N)c3c(=O)c(C(=O)O)cn(C4CC4)c3c2F)C[C@H](C)N1` [SPARFLOXACIN], for which the IC50 result was “Not Active”.

As for `N[C@@H](Cc1ccc(O)c(O)c1)C(=O)O` [LEVODOPA], the IC50 result is on record as “Not Active”.

System in a further data set: not listed separately
In words: DRUGMATRIX: Tumor Necrosis Factor (TNF), Non-Selective radioligand binding (ligand: [125I] TNF-alpha). The conditions noted are these: u-937; Not Active = under 50% inhibition at 10 µM. It counts as cell membranes, Membrane.
As to `CC(=O)[C@@]1(O)CC[C@H]2[C@@H]3C[C@H](C)C4=CC(=O)CC[C@]4(C)[C@H]3CC[C@@]21C`, the IC50 result is on record as “Not Active” and the Ki result was “Not Active”.

On to `Nc1nc2nc[nH]c2c(=S)[nH]1` [THIOGUANINE], for which the IC50 result is listed as “Not Active” and the Ki result is given as “Not Active”.

On to `COc1nc(C)nc(Cl)c1NC1=NCCN1` [MOXONIDINE], for which the IC50 result is listed as “Not Active” and the Ki entry is listed as “Not Active”.

Turning to `C[C@@H]1CN(c2c(F)c(N)c3c(=O)c(C(=O)O)cn(C4CC4)c3c2F)C[C@H](C)N1` [SPARFLOXACIN], the IC50 entry is reported as “Not Active” and the Ki entry is “Not Active”.

For `N[C@@H](Cc1ccc(O)c(O)c1)C(=O)O` [LEVODOPA], the IC50 result was “Not Active” and the Ki entry is “Not Active”.

System in another data set: not listed separately
In words: DRUGMATRIX: GABAA, Chloride Channel, TBOB radioligand binding (ligand: [3H] TBOB). It counts as cell membranes, Rattus norvegicus, Wistar, Cerebral cortex, Membrane. The settings on record: Not Active = under 50% inhibition at 10 µM.
As to `CC(=O)[C@@]1(O)CC[C@H]2[C@@H]3C[C@H](C)C4=CC(=O)CC[C@]4(C)[C@H]3CC[C@@]21C`, the IC50 entry is “Not Active” and the Ki result is on record as “Not Active”.

With `Nc1nc2nc[nH]c2c(=S)[nH]1` [THIOGUANINE], the IC50 entry is recorded as “Not Active” and the Ki entry is “Not Active”.

Consider `COc1nc(C)nc(Cl)c1NC1=NCCN1` [MOXONIDINE], for which the IC50 entry is “Not Active” and the Ki result is “Not Active”.

For the compound `C[C@@H]1CN(c2c(F)c(N)c3c(=O)c(C(=O)O)cn(C4CC4)c3c2F)C[C@H](C)N1` [SPARFLOXACIN], the IC50 entry was “Not Active” and the Ki entry is recorded as “Not Active”.

As to `N[C@@H](Cc1ccc(O)c(O)c1)C(=O)O` [LEVODOPA], the IC50 entry is on record as “Not Active” and the Ki result is on record as “Not Active”.

Another data set deals with Cannabinoid receptor 1 (Homo sapiens, UniProt P21554). It counts as cell membranes, Membrane. The conditions noted are these: chem-1.
Sequence of Cannabinoid receptor 1 (P21554 whole entry): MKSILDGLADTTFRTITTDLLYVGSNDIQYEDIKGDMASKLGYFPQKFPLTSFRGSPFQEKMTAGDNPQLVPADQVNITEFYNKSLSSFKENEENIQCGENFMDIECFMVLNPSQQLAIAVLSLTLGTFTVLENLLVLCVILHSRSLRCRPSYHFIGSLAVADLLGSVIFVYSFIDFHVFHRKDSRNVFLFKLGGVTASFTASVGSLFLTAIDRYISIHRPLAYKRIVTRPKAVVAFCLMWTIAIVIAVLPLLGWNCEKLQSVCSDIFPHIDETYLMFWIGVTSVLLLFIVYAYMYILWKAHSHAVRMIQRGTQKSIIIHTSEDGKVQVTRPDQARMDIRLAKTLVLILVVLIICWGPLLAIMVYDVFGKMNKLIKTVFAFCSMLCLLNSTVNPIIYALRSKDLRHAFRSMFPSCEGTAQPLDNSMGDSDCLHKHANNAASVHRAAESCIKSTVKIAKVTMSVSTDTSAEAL
`CC(=O)[C@@]1(O)CC[C@H]2[C@@H]3C[C@H](C)C4=CC(=O)CC[C@]4(C)[C@H]3CC[C@@]21C`: the IC50 result is reported as “Not Active”.

`Nc1nc2nc[nH]c2c(=S)[nH]1` [THIOGUANINE]: the IC50 result is “Not Active”.

For the compound `COc1nc(C)nc(Cl)c1NC1=NCCN1` [MOXONIDINE], the IC50 result was “Not Active”.

Turning to `C[C@@H]1CN(c2c(F)c(N)c3c(=O)c(C(=O)O)cn(C4CC4)c3c2F)C[C@H](C)N1` [SPARFLOXACIN], the IC50 entry is recorded as “Not Active”.

With `N[C@@H](Cc1ccc(O)c(O)c1)C(=O)O` [LEVODOPA], the IC50 result is on record as “Not Active”.
